Test results as given in patent US20050065340A1, “Metabotropic glutamate receptor-5 modulators” (priority 2001, published 2005).
Structures can show the parent of a compound that is named as a salt.

melting point	SMILES
215 °C	COc1cc(-c2nc3ccccc3o2)ccc1-c1ccccn1 (as salt: hydrochloride) [Example 54, 2-(3-Methoxy-4-pyridin-2-ylphenyl)-1,3-benzoxazole hydrochloride salt]
190 to 191 °C	N#CCc1ccc(-c2nc3ccccc3o2)cc1Br [Example 1, [4-(1,3-Benzoxazol-2-yl)-2-bromnophenyl]acetonitrile]
175 to 176 °C	N#CCc1ccc(-c2nc3ccccc3o2)cc1-c1cccc(C#N)c1 [Example 4, 5′-(1,3-Benzoxazol-2-yl)-2′-(cyanomethyl)-1,1′-biphenyl-3-carbonitrile]
203 °C	N#CCc1ccc(-c2nc3ccccc3o2)cc1[N+](=O)[O-] [Example 6, [4-(1,3-Benzoxazol-2-yl)-2-nitrophenyl]acetonitrile]
198 to 199 °C	N#CCc1ccc(-c2nc3ccccc3o2)cc1N [Example 7, [2-Amino-4-(1,3-benzoxazol-2-yl)phenyl]acetonitrile]
